The assay deals with Intestinal-type alkaline phosphatase (Mus musculus, UniProt P24822). As to the kind of experiment: PubChem AID 488875.
Sequence of Intestinal-type alkaline phosphatase (P24822 whole entry, looked up): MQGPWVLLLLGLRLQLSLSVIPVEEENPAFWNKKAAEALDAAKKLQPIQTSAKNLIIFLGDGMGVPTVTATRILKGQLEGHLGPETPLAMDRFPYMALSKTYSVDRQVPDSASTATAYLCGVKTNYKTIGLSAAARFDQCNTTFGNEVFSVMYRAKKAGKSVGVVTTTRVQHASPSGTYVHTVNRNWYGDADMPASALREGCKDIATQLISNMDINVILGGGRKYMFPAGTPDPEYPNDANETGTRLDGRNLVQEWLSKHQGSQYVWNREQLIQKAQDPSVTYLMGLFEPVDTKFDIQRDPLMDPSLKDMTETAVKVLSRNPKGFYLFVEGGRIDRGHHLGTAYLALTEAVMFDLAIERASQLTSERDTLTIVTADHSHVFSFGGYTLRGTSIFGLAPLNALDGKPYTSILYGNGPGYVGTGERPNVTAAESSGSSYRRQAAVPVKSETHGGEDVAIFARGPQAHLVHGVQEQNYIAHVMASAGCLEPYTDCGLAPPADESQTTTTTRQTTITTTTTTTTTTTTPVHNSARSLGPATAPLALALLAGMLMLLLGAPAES
As to `C=c1[nH]n(-c2nc3ccccc3[nH]2)c(=O)c1=CN(C)C` [(4E)-2-(1H-benzimidazol-2-yl)-4-(dimethylaminomethylidene)-5-methyl-pyrazol-3-one], the EC50 (as a rule, the midpoint of the concentration-response curve) was above 100 µM.
Compound `CCc1ccc(CN=Nc2ncnc3nc[nH]c23)cc1` [MLS000419199] yielded an EC50 above 100 µM.
For `Cn1c(C(C#N)C(=O)c2ccc(Br)s2)nc2ccccc21` (centres undefined) [MLS001167394] the value was above 100 µM.
Take `COc1cccc(C=NNC(=O)c2[nH][nH]c(=O)c2C)c1O` [N'-[(E)-(5-methoxy-6-oxidanylidene-cyclohexa-2,4-dien-1-ylidene)methyl]-4-methyl-5-oxidanylidene-1,4-dihydropyrazole-3-carbohydrazide]: the EC50 is above 100 µM.
